Source: ChEMBL document CHEMBL3525943, “Regiospecific and stereospecific triangulation of the structures of metabolites formed by sequential metabolism at multiple prochiral centers” (Drug Metab Dispos, 2012)

Key:
[1] = Plasma protein binding in human; format: ADME, cell-free; details: read-out: PPB (converted)
[2] = Plasma protein binding in rat; format: ADME, cell-free; details: read-out: PPB (converted)
[3] = Oral bioavailability in rat; format: ADME, organism-based; details: in vivo
[4] = Volume of distribution at steady state in rat; format: ADME, organism-based; details: in vivo, read-out: Vdss
[5] = Clearance in iv dosed rat; format: ADME, organism-based; details: in vivo
[6] = tested on: Rattus norvegicus; test: Total drug recovery in female Sprague-Dawley rat treated with [14C]-AMG 221 at 2 mg/kg, po measured over 48 hrs by liquid scintillation counting analysis; format: ADME, organism-based; design: dose 2 mg/kg, route oral; details: in vivo
[7] = Retention time of the compound in Sprague-Dawley rat urine treated with [14C]-AMG 221 at 2 mg/kg, po after 12 hrs by LC-MS/HPLC radiometric analysis; format: ADME, organism-based; design: dose 2 mg/kg, route oral; details: in vivo
[8] = Drug excretion in male Sprague-Dawley rat urine treated with [14C]-AMG 221 at 2 mg/kg, po measured over 24 hrs by LC-MS/HPLC radiometric analysis; format: ADME, organism-based; design: dose 2 mg/kg, route oral; details: in vivo
[9] = Drug excretion in male Sprague-Dawley rat feces treated with [14C]-AMG 221 at 2 mg/kg, po measured over 24 hrs by LC-MS/HPLC radiometric analysis; format: ADME, organism-based; design: dose 2 mg/kg, route oral; details: in vivo
[10] = Drug excretion in female Sprague-Dawley rat urine treated with [14C]-AMG 221 at 2 mg/kg, po measured over 24 hrs by LC-MS/HPLC radiometric analysis; format: ADME, organism-based; design: dose 2 mg/kg, route oral; details: in vivo
[11] = Drug excretion in female Sprague-Dawley rat feces treated with [14C]-AMG 221 at 2 mg/kg, po measured over 24 hrs by LC-MS/HPLC radiometric analysis; format: ADME, organism-based; design: dose 2 mg/kg, route oral; details: in vivo
[12] = Drug level in Sprague-Dawley rat urine treated with [14C]-(S)-2-((1R,2S,4R,5S)-5-hydroxybicyclo[2.2.1]heptan-2-ylamino)-5-isopropyl-5-methylthiazol-4(5H)-one at 5 mg/kg, po measured over 24 hrs by LC-MS/HPLC radiometric analysis; format: ADME, organism-based; design: dose 5 mg/kg, route oral; details: in vivo
[13] = tested on: Plasma; test: Retention time of the compound in Beagle dog plasma treated with [14C]-AMG 221 at 2 mg/kg, po measured at 0.5 hrs by LC-MS/HPLC radiometric analysis; format: ADME, organism-based, Canis lupus familiaris; design: dose 2 mg/kg, route oral; details: in vivo
[14] = tested on: Liver microsome; test: Drug level in rat liver microsomes treated with (S)-2-((1S,2S,4R,6R)-6-hydroxybicyclo[2.2.1]heptan-2-ylamino)-5-isopropyl-5-methylthiazol-4(5H)-one at 20 uM preincubated for 5 mins followed by NADPH addition measured after 60 mins by LC-MS/MS analysis; format: ADME; details: 1 h
[15] = tested on: Liver microsome; test: Retention time of the compound in rat liver microsomes treated with ((S)-2-((1S,2S,4R)-bicyclo[2.2.1]heptan-2-ylamino)-5-(2-hydroxypropan-2-yl)-5-methylthiazol-4(5H)-one at 20 uM preincubated for 5 mins followed by NADPH addition measured after 60 mins by LC-MS/MS analysis; format: ADME; details: 1 h
[16] = Retention time of the compound in Sprague-Dawley rat urine treated with [14C]-AMG 221 at 2 mg/kg, po measured over 24 hrs by LC-MS/HPLC radiometric analysis; format: ADME, organism-based; design: dose 2 mg/kg, route oral; details: in vivo
[17] = tested on: Liver microsome; test: Retention time of the compound in rat liver microsomes treated with [14C]-(S)-2-((1R,2S,4R,5S)-5-hydroxybicyclo[2.2.1]heptan-2-ylamino)-5-isopropyl-5-methylthiazol-4(5H)-one at 40 uM preincubated for 5 mins followed by NADPH addition measured after 60 mins by LC-MS/MS-radiometric analysis; format: ADME; details: 1 h
[18] = tested on: Liver microsome; test: Retention time of the compound in rat liver microsomes treated with (S)-2-((1S,2S,4R)-bicyclo[2.2.1]heptan-2-ylamino)-5-(2-hydroxypropan-2-yl)-5-methylthiazol-4(5H)-one at 20 uM preincubated for 5 mins followed by NADPH addition measured after 60 mins by LC-MS/MS analysis; format: ADME; details: 1 h
[19] = Retention time of the compound in urine of bile duct cannulated Sprague-Dawley rat treated with [14C]-(S)-2-((1R,2S,4R,5S)-5-hydroxybicyclo[2.2.1]heptan-2-ylamino)-5-isopropyl-5-methylthiazol-4(5H)-one at 5 mg/kg, po measured over 48 hrs by LC-MS/HPLC radiometric analysis; format: ADME, organism-based; design: dose 5 mg/kg, route oral; details: in vivo
[20] = Retention time of the compound in Beagle dog urine treated with [14C]-AMG 221 at 2 mg/kg, po measured over 24 hrs by LC-MS/HPLC radiometric analysis; format: ADME, organism-based, Canis lupus familiaris; design: dose 2 mg/kg, route oral; details: in vivo
[21] = tested on: Plasma; test: Retention time of the compound in Sprague-Dawley rat plasma treated with [14C]-AMG 221 at 2 mg/kg, po measured at 0.5 hrs by LC-MS/HPLC radiometric analysis; format: ADME, organism-based; design: dose 2 mg/kg, route oral; details: in vivo
[22] = tested on: Liver microsome; test: Retention time of the compound in rat liver microsomes treated with (S)-2-((1S,2S,4R)-bicyclo[2.2.1]heptan-2-ylamino)-5-((S)-1-hydroxypropan-2-yl)-5-methylthiazol-4(5H)-one at 20 uM preincubated for 5 mins followed by NADPH addition measured after 60 mins by LC-MS/MS analysis; format: ADME; details: 1 h
[23] = Retention time of the compound in bile duct cannulated Sprague-Dawley rat bile treated with [14C]-(S)-2-((1R,2S,4R,5S)-5-hydroxybicyclo[2.2.1]heptan-2-ylamino)-5-isopropyl-5-methylthiazol-4(5H)-one at 5 mg/kg, po measured over 48 hrs by LC-MS/HPLC radiometric analysis; format: ADME, organism-based; design: dose 5 mg/kg, route oral; details: in vivo

| Drug recovery [6] | Drug excretion [8] | Drug excretion [9] | Drug excretion [10] | Drug excretion [11] | Retention_time [16] | SMILES | also measured |
| --- | --- | --- | --- | --- | --- | --- | --- |
| – | – | – | – | – | – | CC(C)[C@]1(C)SC(N[C@H]2C[C@@H]3CC[C@H]2C3)=NC1=O | fraction unbound [1]: 0.15; fraction unbound [2]: 0.15; bioavailability [3]: 30%; Vd [4]: 1 L/kg; clearance [5]: 50 mL/min/kg |
| 24.2% | 17% | 17% | 24% | 24% | – | CC(C)[C@]1(C)SC(N[C@H]2C[C@H]3C[C@@H]2C[C@@H]3O)=NC1=O | Retention_time [7]: 30.3 min |
| 4.7% | 29% | 29% | 37% | 37% | – | CC(C)[C@]1(C)SC(N[C@H]2C[C@H]3C[C@@H]2C[C@H]3O)=NC1=O | Retention_time [7]: 30.9 min |
| 9.1% | – | – | – | – | – | CC(C)[C@]1(C)SC(N[C@H]2C[C@H]3C[C@@H]2CC3=O)=NC1=O | Retention_time [7]: 33.3 min; Drug metabolism [12]: metabolite_detected |
| 3.2% | 29% | 29% | 37% | 37% | – | CC(C)[C@]1(C)SC(N[C@H]2C[C@H]3C[C@@H]2[C@H](O)C3)=NC1=O | Retention_time [7]: 33 min |
| – | – | – | – | – | – | C=C(C)[C@]1(C)SC(N[C@H]2C[C@@H]3CC[C@H]2C3)=NC1=O | Retention_time [13]: 40.7 min |
| 2.4% | 8.3% | 8.3% | 24% | 24% | – | CC(C)(O)[C@]1(C)SC(N[C@H]2C[C@H]3C[C@@H]2[C@H](O)C3)=NC1=O | Drug metabolism [14]: metabolite_detected; Retention_time [15]: 16.8 min |
| 0.1% | – | – | – | – | 9.2 min | C[C@H](CO)[C@]1(C)SC(N[C@H]2C[C@H]3C[C@@H]2CC3=O)=NC1=O | – |
| – | 8.3% | 8.3% | 24% | 24% | – | CC(C)(O)[C@]1(C)SC(N[C@H]2C[C@H]3C[C@@H]2C[C@@H]3O)=NC1=O | Retention_time [17]: 11.5 min; Retention_time [18]: 11.5 min |
| 0.1% | 8.3% | 8.3% | 24% | 24% | – | C[C@@H](CO)[C@]1(C)SC(N[C@H]2C[C@H]3C[C@@H]2C[C@H]3O)=NC1=O | Retention_time [19]: 12.8 min |
| – | – | – | – | – | 25.8 min | C[C@H](C(=O)O)[C@]1(C)SC(N[C@H]2C[C@@H]3CC[C@H]2C3)=NC1=O | – |
| 0.5% | – | – | – | – | – | C[C@@H](C(=O)O)[C@]1(C)SC(N[C@H]2C[C@@H]3CC[C@H]2C3)=NC1=O | Retention_time [20]: 35.7 min |
| 0.8% | – | – | – | – | 27.9 min | C=C(C)[C@]1(C)SC(N[C@H]2C[C@H]3C[C@@H]2C[C@@H]3O)=NC1=O | – |
| 0.1% | – | – | – | – | – | C=C(C)[C@]1(C)SC(N[C@H]2C[C@H]3C[C@@H]2[C@H](O)C3)=NC1=O | Retention_time [20]: 29.9 min |
| 0.9% | 29% | 29% | 37% | 37% | – | CC(C)(O)[C@]1(C)SC(N[C@H]2C[C@@H]3CC[C@H]2C3)=NC1=O | Retention_time [21]: 38.5 min |
| 2.1% | – | – | – | – | 14.1 min | C[C@@H](CO)[C@]1(C)SC(N[C@H]2C[C@H]3C[C@@H]2CC3=O)=NC1=O | – |
| – | – | – | – | – | 20.7 min | CC(C)(O)[C@]1(C)SC(N[C@H]2C[C@H]3C[C@@H]2CC3=O)=NC1=O | – |
| – | 8.3% | 8.3% | 24% | 24% | – | CC(C)(O)[C@]1(C)SC(N[C@H]2C[C@H]3C[C@@H]2C[C@H]3O)=NC1=O | Retention_time [19]: 12.8 min |
| 2.9% | 8.3% | 8.3% | 24% | 24% | – | C[C@@H](CO)[C@]1(C)SC(N[C@H]2C[C@H]3C[C@@H]2C[C@@H]3O)=NC1=O | Retention_time [22]: 11.5 min; Retention_time [17]: 11.5 min |
| 0.2% | 8.3% | 8.3% | 24% | 24% | 8.5 min | C[C@H](CO)[C@]1(C)SC(N[C@H]2C[C@H]3C[C@@H]2C[C@H]3O)=NC1=O | – |
| 0.1% | 8.3% | 8.3% | 24% | 24% | 9.9 min | C[C@H](CO)[C@]1(C)SC(N[C@H]2C[C@H]3C[C@@H]2[C@H](O)C3)=NC1=O | – |
| 0.1% | – | – | – | – | – | CC(CO[C@@H]1O[C@H](C(=O)O)[C@@H](O)[C@H](O)[C@H]1O)[C@]1(C)SC(N[C@H]2C[C@@H]3CC[C@H]2C3)=NC1=O (stereo partly drawn) | Retention_time [20]: 27.8 min |
| 0.2% | – | – | – | – | – | CC(C)[C@]1(C)SC(N[C@H]2C[C@H]3C[C@@H]2C[C@H]3O[C@@H]2O[C@H](C(=O)O)[C@@H](O)[C@H](O)[C@H]2O)=NC1=O | Retention_time [23]: 25.2 min |
| 0.1% | 8.3% | 8.3% | 24% | 24% | 19.2 min | CC(C)[C@]1(C)SC(N[C@H]2C[C@H]3C[C@@H]2[C@H](O)[C@@H]3O)=NC1=O | – |
| 0.1% | 8.3% | 8.3% | 24% | 24% | – | CC(O)(CO)[C@]1(C)SC(N[C@H]2C[C@@H]3CC[C@H]2C3)=NC1=O (stereo partly drawn) | Retention_time [20]: 31.5 min |
| 1.2% | 8.3% | 8.3% | 24% | 24% | 7.2 min | C[C@H](CO)[C@]1(C)SC(N[C@H]2C[C@H]3C[C@@H]2C[C@@H]3O)=NC1=O | Drug metabolism [12]: metabolite_detected |
| 2.6% | 29% | 29% | 37% | 37% | – | C[C@H](CO)[C@]1(C)SC(N[C@H]2C[C@@H]3CC[C@H]2C3)=NC1=O | Retention_time [7]: 34.6 min |
| 0.8% | 29% | 29% | 37% | 37% | – | C[C@@H](CO)[C@]1(C)SC(N[C@H]2C[C@@H]3CC[C@H]2C3)=NC1=O | Retention_time [7]: 37.5 min |
